Data: ChEMBL document CHEMBL4507301 (2021)

Columns and labels:
[1] = tested on: Tyrosine-protein kinase ABL1 (Homo sapiens), P00519 [Q252H]; settings: Compound concentration 1000.0 nM
[2] = target: Atypical kinase COQ8B, mitochondrial (Homo sapiens) (UniProt Q96D53); settings: Compound concentration 1000.0 nM
[3] = target: RAC-gamma serine/threonine-protein kinase (Homo sapiens) (UniProt Q9Y243); settings: Compound concentration 1000.0 nM
[4] = target: ALK tyrosine kinase receptor (Homo sapiens) (UniProt Q9UM73); settings: Compound concentration 1000.0 nM
[5] = target: Aurora kinase B (Homo sapiens) (UniProt Q96GD4); settings: Compound concentration 1000.0 nM
[6] = target: Calcium/calmodulin-dependent protein kinase type II subunit gamma (Homo sapiens) (UniProt Q13555); settings: Compound concentration 1000.0 nM
[7] = target: Cyclin-dependent kinase 4 (Homo sapiens) (UniProt P11802); settings: Compound concentration 1000.0 nM
[8] = target: Dual specificity protein kinase CLK4 (Homo sapiens) (UniProt Q9HAZ1); settings: Compound concentration 1000.0 nM
[9] = target: Casein kinase I isoform gamma-1 (Homo sapiens) (UniProt Q9HCP0); settings: Compound concentration 1000.0 nM
[10] = target: Epidermal growth factor receptor (Homo sapiens) (UniProt P00533); settings: Compound concentration 1000.0 nM
[11] = target: Ephrin type-A receptor 5 (Homo sapiens) (UniProt P54756); settings: Compound concentration 1000.0 nM
[12] = target: Mitogen-activated protein kinase 1 (Homo sapiens) (UniProt P28482); settings: Compound concentration 1000.0 nM
[13] = tested on: Receptor-type tyrosine-protein kinase FLT3 (Homo sapiens), P36888 [UNDEFINED MUTATION]; settings: Compound concentration 1000.0 nM
[14] = target: Glycogen synthase kinase-3 beta (Homo sapiens) (UniProt P49841); settings: Compound concentration 1000.0 nM
[15] = target: Tyrosine-protein kinase JAK2 (Homo sapiens) (UniProt O60674); settings: Compound concentration 1000.0 nM
[16] = target: Serine/threonine-protein kinase LATS2 (Homo sapiens) (UniProt Q9NRM7); settings: Compound concentration 1000.0 nM
[17] = target: LIM domain kinase 2 (Homo sapiens) (UniProt P53671); settings: Compound concentration 1000.0 nM
[18] = tested on: Leucine-rich repeat serine/threonine-protein kinase 2 (Homo sapiens), Q5S007 [G2019S]; settings: Compound concentration 1000.0 nM
[19] = target: Mitogen-activated protein kinase kinase kinase 15 (Homo sapiens) (UniProt Q6ZN16); settings: Compound concentration 1000.0 nM
[20] = target: Mitogen-activated protein kinase kinase kinase 3 (Homo sapiens) (UniProt Q99759); settings: Compound concentration 1000.0 nM
[21] = target: Mitogen-activated protein kinase kinase kinase kinase 2 (Homo sapiens) (UniProt Q12851); settings: Compound concentration 1000.0 nM
[22] = target: MAP/microtubule affinity-regulating kinase 4 (Homo sapiens) (UniProt Q96L34); settings: Compound concentration 1000.0 nM
[23] = target: Dual specificity mitogen-activated protein kinase kinase 1 (Homo sapiens) (UniProt Q02750); settings: Compound concentration 1000.0 nM
[24] = target: Dual specificity mitogen-activated protein kinase kinase 6 (Homo sapiens) (UniProt P52564); settings: Compound concentration 1000.0 nM
[25] = target: Serine/threonine-protein kinase MRCK alpha (Homo sapiens) (UniProt Q5VT25); settings: Compound concentration 1000.0 nM
[26] = target: Macrophage-stimulating protein receptor (Homo sapiens) (UniProt Q04912); settings: Compound concentration 1000.0 nM
[27] = target: Myosin light chain kinase 2, skeletal/cardiac muscle (Homo sapiens) (UniProt Q9H1R3); settings: Compound concentration 1000.0 nM
[28] = target: Serine/threonine-protein kinase Nek5 (Homo sapiens) (UniProt Q6P3R8); settings: Compound concentration 1000.0 nM
[29] = target: Cyclin-dependent kinase 17 (Homo sapiens) (UniProt Q00537); settings: Compound concentration 1000.0 nM
[30] = target: 3-phosphoinositide-dependent protein kinase 1 (Homo sapiens) (UniProt O15530); settings: Compound concentration 1000.0 nM
[31] = target: Calcium-dependent protein kinase 1 (Plasmodium falciparum) (UniProt P62344); settings: Compound concentration 1000.0 nM
[32] = target: Phosphatidylinositol 5-phosphate 4-kinase type-2 gamma (Homo sapiens) (UniProt Q8TBX8); settings: Compound concentration 1000.0 nM
[33] = target: Serine/threonine-protein kinase PRP4 homolog (Homo sapiens) (UniProt Q13523); settings: Compound concentration 1000.0 nM
[34] = target: RAF proto-oncogene serine/threonine-protein kinase (Homo sapiens) (UniProt P04049); settings: Compound concentration 1000.0 nM
[35] = target: Rho-associated protein kinase 2 (Homo sapiens) (UniProt O75116); settings: Compound concentration 1000.0 nM
[36] = target: Tyrosine-protein kinase SYK (Homo sapiens) (UniProt P43405); settings: Compound concentration 1000.0 nM
[37] = target: Serine/threonine-protein kinase TAO2 (Homo sapiens) (UniProt Q9UL54); settings: Compound concentration 1000.0 nM
[38] = target: Serine/threonine-protein kinase TBK1 (Homo sapiens) (UniProt Q9UHD2); settings: Compound concentration 1000.0 nM
[39] = target: Activated CDC42 kinase 1 (Homo sapiens) (UniProt Q07912); settings: Compound concentration 1000.0 nM
[40] = target: Non-receptor tyrosine-protein kinase TYK2 (Homo sapiens) (UniProt P29597); settings: Compound concentration 1000.0 nM
[41] = target: Serine/threonine-protein kinase ULK2 (Homo sapiens) (UniProt Q8IYT8); settings: Compound concentration 1000.0 nM
[42] = target: 5-hydroxytryptamine receptor 6 (Homo sapiens) (UniProt P50406); settings: Compound concentration 10.0 uM
[43] = target: Beta-2 adrenergic receptor (Homo sapiens) (UniProt P07550); settings: Compound concentration 10.0 uM
[44] = target: Muscarinic acetylcholine receptor M2 (Homo sapiens) (UniProt P08172); settings: Compound concentration 10.0 uM
[45] = target: Sigma non-opioid intracellular receptor 1 (Homo sapiens) (UniProt Q99720); settings: Compound concentration 10.0 uM

Sequence of 5-hydroxytryptamine receptor 6 (Homo sapiens) (P50406 whole entry): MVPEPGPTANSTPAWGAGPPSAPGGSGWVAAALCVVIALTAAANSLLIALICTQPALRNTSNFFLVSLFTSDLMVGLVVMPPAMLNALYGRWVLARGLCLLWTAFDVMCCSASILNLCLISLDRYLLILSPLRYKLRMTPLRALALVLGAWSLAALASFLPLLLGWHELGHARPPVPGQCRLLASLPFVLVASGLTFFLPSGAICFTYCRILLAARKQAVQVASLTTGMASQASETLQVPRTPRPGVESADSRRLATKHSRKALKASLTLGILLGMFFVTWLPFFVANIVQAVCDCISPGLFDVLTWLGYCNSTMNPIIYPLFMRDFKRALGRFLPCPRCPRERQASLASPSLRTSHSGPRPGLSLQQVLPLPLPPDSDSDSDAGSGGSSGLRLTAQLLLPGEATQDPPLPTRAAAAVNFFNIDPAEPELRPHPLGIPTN
Sequence of Serine/threonine-protein kinase PRP4 homolog (Homo sapiens) (Q13523 whole entry): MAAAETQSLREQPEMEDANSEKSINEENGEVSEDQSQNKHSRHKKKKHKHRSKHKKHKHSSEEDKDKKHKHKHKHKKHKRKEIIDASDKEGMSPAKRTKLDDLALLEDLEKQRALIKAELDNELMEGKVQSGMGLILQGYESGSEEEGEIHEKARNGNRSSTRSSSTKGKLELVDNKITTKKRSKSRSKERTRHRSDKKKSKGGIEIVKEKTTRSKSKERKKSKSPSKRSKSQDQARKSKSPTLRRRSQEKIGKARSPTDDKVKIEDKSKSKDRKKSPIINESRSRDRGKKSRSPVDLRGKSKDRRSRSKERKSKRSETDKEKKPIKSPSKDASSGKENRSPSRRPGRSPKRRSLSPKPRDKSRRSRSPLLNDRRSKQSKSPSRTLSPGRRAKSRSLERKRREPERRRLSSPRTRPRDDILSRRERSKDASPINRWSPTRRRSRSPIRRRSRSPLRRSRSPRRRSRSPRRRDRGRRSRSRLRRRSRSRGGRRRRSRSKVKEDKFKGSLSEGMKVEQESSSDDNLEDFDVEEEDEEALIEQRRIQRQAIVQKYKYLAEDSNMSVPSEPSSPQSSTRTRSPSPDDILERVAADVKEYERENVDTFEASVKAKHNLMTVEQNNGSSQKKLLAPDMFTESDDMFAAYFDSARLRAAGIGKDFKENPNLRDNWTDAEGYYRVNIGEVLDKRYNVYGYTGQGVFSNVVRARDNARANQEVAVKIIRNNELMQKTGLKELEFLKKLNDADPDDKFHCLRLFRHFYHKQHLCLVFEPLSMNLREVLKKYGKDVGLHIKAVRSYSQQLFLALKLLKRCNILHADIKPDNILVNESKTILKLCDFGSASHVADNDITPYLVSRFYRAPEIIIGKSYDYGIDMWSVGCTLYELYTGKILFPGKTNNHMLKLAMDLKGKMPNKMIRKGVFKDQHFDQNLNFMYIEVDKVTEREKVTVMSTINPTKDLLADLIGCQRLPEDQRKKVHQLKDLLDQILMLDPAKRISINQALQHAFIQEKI
Sequence of Calcium/calmodulin-dependent protein kinase type II subunit gamma (Homo sapiens) (Q13555 whole entry): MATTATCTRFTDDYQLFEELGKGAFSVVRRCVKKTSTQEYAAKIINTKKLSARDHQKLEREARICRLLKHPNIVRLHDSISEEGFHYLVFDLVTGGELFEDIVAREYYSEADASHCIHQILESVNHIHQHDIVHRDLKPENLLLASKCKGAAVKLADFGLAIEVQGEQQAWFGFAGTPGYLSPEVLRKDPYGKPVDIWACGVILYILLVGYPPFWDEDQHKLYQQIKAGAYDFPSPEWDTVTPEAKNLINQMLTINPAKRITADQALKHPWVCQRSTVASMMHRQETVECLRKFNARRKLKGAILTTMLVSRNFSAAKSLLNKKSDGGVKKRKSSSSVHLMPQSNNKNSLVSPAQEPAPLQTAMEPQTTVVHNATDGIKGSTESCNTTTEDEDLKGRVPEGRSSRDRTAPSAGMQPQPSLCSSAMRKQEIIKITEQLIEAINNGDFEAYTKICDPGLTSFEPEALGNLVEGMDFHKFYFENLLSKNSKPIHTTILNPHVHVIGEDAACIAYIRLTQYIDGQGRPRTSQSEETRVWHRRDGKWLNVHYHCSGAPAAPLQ
Sequence of Serine/threonine-protein kinase MRCK alpha (Homo sapiens) (Q5VT25 whole entry): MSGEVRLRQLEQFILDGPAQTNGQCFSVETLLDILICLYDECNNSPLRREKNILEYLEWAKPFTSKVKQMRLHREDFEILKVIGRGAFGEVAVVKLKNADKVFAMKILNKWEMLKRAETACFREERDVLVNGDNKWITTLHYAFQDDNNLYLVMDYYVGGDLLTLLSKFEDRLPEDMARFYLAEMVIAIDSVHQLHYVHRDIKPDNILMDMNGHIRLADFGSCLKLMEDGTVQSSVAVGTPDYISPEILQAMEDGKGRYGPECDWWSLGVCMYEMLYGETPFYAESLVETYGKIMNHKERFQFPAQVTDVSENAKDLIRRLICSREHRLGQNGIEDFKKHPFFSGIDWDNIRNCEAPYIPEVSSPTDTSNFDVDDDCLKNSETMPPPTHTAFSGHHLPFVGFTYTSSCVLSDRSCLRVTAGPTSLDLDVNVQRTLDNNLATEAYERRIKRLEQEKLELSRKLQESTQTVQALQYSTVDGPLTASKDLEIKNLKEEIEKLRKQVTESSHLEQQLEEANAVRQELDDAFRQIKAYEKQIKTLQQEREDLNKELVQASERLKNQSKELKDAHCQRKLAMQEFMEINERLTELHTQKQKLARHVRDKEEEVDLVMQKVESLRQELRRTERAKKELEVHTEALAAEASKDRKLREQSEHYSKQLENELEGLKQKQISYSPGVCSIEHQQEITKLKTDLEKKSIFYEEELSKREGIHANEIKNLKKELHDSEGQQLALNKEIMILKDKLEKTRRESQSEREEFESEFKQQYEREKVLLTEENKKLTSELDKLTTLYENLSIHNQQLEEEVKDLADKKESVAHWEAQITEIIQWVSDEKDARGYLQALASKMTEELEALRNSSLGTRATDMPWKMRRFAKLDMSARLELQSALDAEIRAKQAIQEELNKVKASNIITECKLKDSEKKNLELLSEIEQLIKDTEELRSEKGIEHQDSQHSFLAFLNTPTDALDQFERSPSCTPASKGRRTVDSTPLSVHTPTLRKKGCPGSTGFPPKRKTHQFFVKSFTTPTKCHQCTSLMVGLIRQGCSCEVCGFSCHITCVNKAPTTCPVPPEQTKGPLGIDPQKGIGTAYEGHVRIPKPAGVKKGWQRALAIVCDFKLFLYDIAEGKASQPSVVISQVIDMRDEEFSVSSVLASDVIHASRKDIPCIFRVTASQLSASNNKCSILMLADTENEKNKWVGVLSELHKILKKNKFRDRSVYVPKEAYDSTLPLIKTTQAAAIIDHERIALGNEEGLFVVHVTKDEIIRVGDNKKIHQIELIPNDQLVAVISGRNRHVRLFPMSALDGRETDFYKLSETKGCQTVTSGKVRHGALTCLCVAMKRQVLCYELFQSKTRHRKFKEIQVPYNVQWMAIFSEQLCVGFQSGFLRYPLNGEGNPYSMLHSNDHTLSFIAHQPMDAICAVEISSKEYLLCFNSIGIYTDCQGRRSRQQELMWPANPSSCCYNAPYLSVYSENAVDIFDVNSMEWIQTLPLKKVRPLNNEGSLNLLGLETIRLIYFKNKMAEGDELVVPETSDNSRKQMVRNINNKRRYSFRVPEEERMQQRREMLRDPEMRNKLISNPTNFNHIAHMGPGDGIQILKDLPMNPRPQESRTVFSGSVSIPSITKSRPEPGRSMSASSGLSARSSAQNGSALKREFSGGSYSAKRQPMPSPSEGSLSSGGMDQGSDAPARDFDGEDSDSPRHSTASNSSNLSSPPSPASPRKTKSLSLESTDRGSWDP
Sequence of Cyclin-dependent kinase 4 (Homo sapiens) (P11802 whole entry): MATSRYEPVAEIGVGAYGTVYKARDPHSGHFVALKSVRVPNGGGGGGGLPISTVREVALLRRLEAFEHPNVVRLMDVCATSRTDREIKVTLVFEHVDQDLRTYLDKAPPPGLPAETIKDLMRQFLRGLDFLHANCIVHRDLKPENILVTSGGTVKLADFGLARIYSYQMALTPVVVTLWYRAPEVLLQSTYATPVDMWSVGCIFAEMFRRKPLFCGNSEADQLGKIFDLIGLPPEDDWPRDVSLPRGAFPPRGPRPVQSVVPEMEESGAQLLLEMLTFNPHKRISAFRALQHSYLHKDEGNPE
Sequence of Cyclin-dependent kinase 17 (Homo sapiens) (Q00537 whole entry, looked up): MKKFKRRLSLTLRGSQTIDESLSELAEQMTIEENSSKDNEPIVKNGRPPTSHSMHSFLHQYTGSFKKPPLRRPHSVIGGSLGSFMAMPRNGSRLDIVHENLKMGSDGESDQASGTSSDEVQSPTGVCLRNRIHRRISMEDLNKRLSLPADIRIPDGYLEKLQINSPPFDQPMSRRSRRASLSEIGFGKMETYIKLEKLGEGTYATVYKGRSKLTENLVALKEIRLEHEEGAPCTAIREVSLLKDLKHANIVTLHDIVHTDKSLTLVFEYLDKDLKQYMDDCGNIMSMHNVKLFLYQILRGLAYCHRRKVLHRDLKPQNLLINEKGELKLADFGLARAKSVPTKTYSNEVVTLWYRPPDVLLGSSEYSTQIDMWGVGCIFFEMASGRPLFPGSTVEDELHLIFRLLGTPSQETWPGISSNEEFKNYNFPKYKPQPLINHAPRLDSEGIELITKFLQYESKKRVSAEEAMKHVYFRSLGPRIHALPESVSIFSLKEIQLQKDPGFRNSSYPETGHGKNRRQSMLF
Sequence of Dual specificity mitogen-activated protein kinase kinase 6 (Homo sapiens) (P52564 whole entry): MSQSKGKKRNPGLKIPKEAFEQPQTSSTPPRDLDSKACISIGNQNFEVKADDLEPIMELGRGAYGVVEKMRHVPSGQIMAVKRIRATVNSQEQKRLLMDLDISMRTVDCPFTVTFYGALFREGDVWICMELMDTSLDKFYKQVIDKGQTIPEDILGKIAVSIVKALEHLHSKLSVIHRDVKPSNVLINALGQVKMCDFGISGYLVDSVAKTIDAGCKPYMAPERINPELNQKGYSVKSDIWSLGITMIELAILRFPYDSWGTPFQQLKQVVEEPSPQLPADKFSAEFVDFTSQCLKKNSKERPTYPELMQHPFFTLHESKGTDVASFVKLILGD

C[C@H](c1cccc(C#N)c1)n1cc(Cl)cc(C(N)=O)c1=N [(R)-9s]
inactive: residual activity [1] 84% | residual activity [2] 100% | residual activity [3] 100% | residual activity [4] 79% | residual activity [5] 100% | residual activity [6] 100% | residual activity [7] 88% | residual activity [8] 100% | residual activity [9] 96% | residual activity [10] 100% | residual activity [11] 96% | residual activity [12] 93% | residual activity [13] 82% | residual activity [14] 95% | residual activity [15] 100% | residual activity [16] 84% | residual activity [17] 100% | residual activity [18] 100% | residual activity [19] 81% | residual activity [20] 91% | residual activity [21] 99% | residual activity [22] 99% | residual activity [23] 75% | residual activity [24] 100% | residual activity [25] 100% | residual activity [26] 100% | residual activity [27] 100% | residual activity [28] 93% | residual activity [29] 91% | residual activity [30] 100% | residual activity [31] 86% | residual activity [32] 100% | residual activity [33] 93% | residual activity [34] 100% | residual activity [35] 94% | residual activity [36] 100% | residual activity [37] 82% | residual activity [38] 98% | residual activity [39] 83% | residual activity [40] 100% | residual activity [41] 71% | inhibition [42] 6.03% | inhibition [43] 18.6% | inhibition [44] -3.2% | inhibition [45] 17.7%

C[C@@H](c1cccc(C#N)c1)n1cc(Cl)cc(C(N)=O)c1=N [(S)-9s]
inactive: residual activity [1] 78% | residual activity [2] 88% | residual activity [3] 100% | residual activity [4] 83% | residual activity [5] 100% | residual activity [6] 100% | residual activity [7] 99% | residual activity [8] 100% | residual activity [9] 82% | residual activity [10] 100% | residual activity [11] 96% | residual activity [12] 82% | residual activity [13] 85% | residual activity [14] 88% | residual activity [15] 100% | residual activity [16] 80% | residual activity [17] 100% | residual activity [18] 100% | residual activity [19] 98% | residual activity [20] 95% | residual activity [21] 90% | residual activity [22] 100% | residual activity [23] 80% | residual activity [24] 100% | residual activity [25] 100% | residual activity [26] 100% | residual activity [27] 100% | residual activity [28] 100% | residual activity [29] 84% | residual activity [30] 100% | residual activity [31] 78% | residual activity [32] 85% | residual activity [33] 100% | residual activity [34] 100% | residual activity [35] 90% | residual activity [36] 96% | residual activity [37] 84% | residual activity [38] 89% | residual activity [39] 95% | residual activity [40] 100% | residual activity [41] 89% | inhibition [42] 7.75% | inhibition [43] 13.8% | inhibition [44] 0.11% | inhibition [45] 17.4%
